From ChEMBL document CHEMBL1201862, “PubChem BioAssay data set” (2004) come the findings set out here.

The structures appear in SMILES notation.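 Dose response: 5 concentrations. Exposure: 48 h. Format: 96-well plates. Endpoint: linear interpolation; highest concentration if not reached. At the GI50, growth is halved.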 Calls of active or inactive are those of the source. Rule as the data show it: active = GI50 up to about 1.1 µM and inactive = higher.

Among the test systems are UACC-62; UO-31; Malme-3M; HOP-62; MDA-MB-231; LOX IMVI; SR; SK-OV-3; NCI-H226; CCRF-CEM; NCI-H522; T47D; OVCAR-3; BT-549; A498; HCT-15; EKVX; SF-539; COLO 205; SNB-75.
What all share (assay): NCI anticancer screen, dose series, 48 h

In the case of `CCOC(=O)c1sc2nc(SC)nc3c2c1NCN3c1ccc2c(c1)OCCCO2`, the GI50 with UACC-62 is > 100 µM (inactive); in the test on UO-31, 37.9 µM (inactive); in the test with Malme-3M, > 100 µM (inactive); with HOP-62 it was 27.9 µM (inactive); in the test on MDA-MB-231, 24.3 µM (inactive); in the test on LOX IMVI it was > 100 µM (inactive). Besides, the GI50 with SR was > 100 µM (inactive); in the test on SK-OV-3 it was 15.7 µM (inactive); with NCI-H226, 3.53 µM (inactive); in the test with CCRF-CEM, > 100 µM (inactive); in the test on NCI-H522, > 100 µM (inactive); with T47D, 68.1 µM (inactive). In addition, the GI50 is 18.6 µM (inactive) in the test on OVCAR-3; 51.2 µM (inactive) in the test with BT-549; 7.98 µM (inactive) in the test with A498; more than 100 µM in the test with HCT-15; > 100 µM (inactive) in the test with EKVX; 13.9 µM (inactive) in the test on SF-539.
Consider `CC(=O)OCC1C(C(C)OC(C)=O)CCC2C1CCC1(C)C(OC(C)=O)CCC21` (stereo not given), for which the GI50 with UACC-62 was 12.9 µM (inactive); in the test with UO-31, 61.9 µM (inactive); in the test on Malme-3M it was 16.9 µM (inactive); in the test on HOP-62 it was 21.5 µM (inactive); with MDA-MB-231, 15.6 µM (inactive); with LOX IMVI, 14.7 µM (inactive). Besides, the GI50 in the test with SR was 23.7 µM (inactive); with NCI-H226, 16.6 µM (inactive); with CCRF-CEM, 19.8 µM (inactive); in the test on NCI-H522 it was 20.6 µM (inactive); with T47D, 24.8 µM (inactive); in the test on OVCAR-3, 20.5 µM (inactive). Moreover, the GI50 is 11.6 µM (inactive) with BT-549; 19.7 µM (inactive) in the test on A498; 19.7 µM in the test with HCT-15; 15.6 µM (inactive) in the test on EKVX; 17.7 µM (inactive) in the test on SF-539.
With `COc1c2c(c(CC=C(C)C)c3oc(=O)c(-c4ccc(O)cc4)c(O)c13)OC(C)(C)C=C2` [LONCHOCARPIC ACID], the GI50 in the test with UACC-62 is 21.2 µM (inactive); with UO-31, 27.8 µM (inactive); in the test with Malme-3M, 30.8 µM (inactive); with COLO 205 it was 23.4 µM (inactive); in the test with HOP-62, 23.4 µM (inactive); in the test with MDA-MB-231 it was 24.8 µM (inactive). Also, the GI50 in the test on LOX IMVI is 34.4 µM (inactive); in the test on SR, 18.5 µM (inactive); with NCI-H226, 21.5 µM (inactive); with CCRF-CEM, 23.7 µM (inactive); with NCI-H522, 23 µM (inactive); in the test on T47D, 14.3 µM (inactive). Further, the GI50 with OVCAR-3 was 15.7 µM (inactive); with BT-549, 41.8 µM (inactive); in the test on A498, 31.8 µM (inactive); in the test on HCT-15, 11.9 µM; in the test on EKVX it was 22.3 µM (inactive); in the test with SF-539 it was 15.1 µM (inactive).
For `C[C@H](CS)C(=O)N1c2ccccc2C[C@H]1C(=O)O`, the GI50 in the test on UACC-62, with UO-31, in the test on COLO 205, in the test on HOP-62, in the test with MDA-MB-231 and in the test with SR was > 100 µM (inactive) each time. The GI50 is > 100 µM (inactive) with SK-OV-3; > 100 µM (inactive) with SNB-75; > 100 µM (inactive) with NCI-H226; > 100 µM (inactive) in the test with CCRF-CEM; > 100 µM (inactive) in the test on NCI-H522; 56 µM (inactive) with T47D. The GI50 was > 100 µM (inactive) in the test with OVCAR-3; > 100 µM (inactive) in the test with BT-549; > 100 µM (inactive) in the test with A498; more than 100 µM with HCT-15; > 100 µM (inactive) in the test on EKVX; > 100 µM (inactive) in the test on SF-539.
In the case of `C/C(=N\O)c1cccc(Nc2nc3ccccc3c3occc23)c1`, the GI50 with UACC-62 was < 0.01 µM (active); in the test on UO-31, 0.0303 µM (active); in the test on Malme-3M, 14.4 µM (inactive); in the test with COLO 205 it was 12.9 µM (inactive); with HOP-62, 18.3 µM (inactive); with MDA-MB-231, 11.9 µM (inactive). The GI50 is 13.6 µM (inactive) in the test with LOX IMVI; 5.81 µM (inactive) in the test on SR; 15 µM (inactive) in the test with SK-OV-3; 16.2 µM (inactive) with SNB-75; 1.72 µM (inactive) with NCI-H226; 8.02 µM (inactive) in the test with CCRF-CEM. Besides, the GI50 is 7.73 µM (inactive) in the test with T47D; 13.7 µM (inactive) in the test on OVCAR-3; 13.1 µM (inactive) in the test with BT-549; 14.8 µM (inactive) in the test on A498; 7.94 µM in the test with HCT-15; 12.7 µM (inactive) with EKVX. In addition, the GI50 in the test with SF-539 is 15.5 µM (inactive).
Turning to `O=C(CSCC(=O)N/N=C\c1cc(Cl)cc(Cl)c1O)N/N=C\c1cc(Cl)cc(Cl)c1O`, the GI50 was 3.64 µM (inactive) with UACC-62; 4 µM (inactive) in the test on UO-31; 1.87 µM (inactive) with Malme-3M; 6.1 µM (inactive) with COLO 205; 5.69 µM (inactive) in the test on HOP-62; 2.48 µM (inactive) in the test with MDA-MB-231. Also, the GI50 with LOX IMVI is 1.38 µM (inactive); with SR, 1.77 µM (inactive); with SK-OV-3 it was 8.55 µM (inactive); with SNB-75, 12.4 µM (inactive); with NCI-H226, 3.62 µM (inactive); with CCRF-CEM it was 0.294 µM (active). The GI50 in the test on NCI-H522 is 1.71 µM (inactive); with T47D it was 3.08 µM (inactive); in the test on OVCAR-3, 1.69 µM (inactive); in the test on BT-549, 4.81 µM (inactive); with HCT-15 it was 2.99 µM; in the test on EKVX, 4.45 µM (inactive). In addition, the GI50 in the test on SF-539 was 2.58 µM (inactive).
As to `COc1ccc2c(c1)CCc1cc(C(N)=O)c3nnnn3c1-2`, the GI50 is 1.67 µM (inactive) with UACC-62; 18.2 µM (inactive) in the test on Malme-3M; > 100 µM (inactive) in the test on COLO 205; 25.5 µM (inactive) in the test with HOP-62; > 49.2 µM (inactive) with MDA-MB-231; > 58.1 µM (inactive) in the test with LOX IMVI. Moreover, the GI50 in the test on SR was > 100 µM (inactive); in the test with SK-OV-3, 54.3 µM (inactive); with NCI-H226, > 100 µM (inactive); in the test on CCRF-CEM, > 50.1 µM (inactive); in the test on NCI-H522, 27.9 µM (inactive); with T47D it was 25.2 µM (inactive). Moreover, the GI50 was > 54.3 µM (inactive) in the test on OVCAR-3; 35.5 µM (inactive) with BT-549; 18.2 µM (inactive) in the test with A498; more than 100 µM in the test on HCT-15; < 0.0224 µM (active) in the test with EKVX; 78.7 µM (inactive) in the test with SF-539.
On to `COc1cc2c(cc1OC)C(=O)N(c1ccc(O)cc1)C2`, for which the GI50 with UACC-62, in the test on Malme-3M, in the test with COLO 205, in the test with HOP-62, in the test with MDA-MB-231 and with LOX IMVI was > 100 µM (inactive) in each case. Further, the GI50 with SR, in the test with SK-OV-3, with NCI-H226, in the test on CCRF-CEM, with NCI-H522 and with T47D was > 100 µM (inactive) in each case. For the same compound, the GI50 was > 100 µM (inactive) in the test with OVCAR-3; > 100 µM (inactive) with BT-549; > 100 µM (inactive) in the test with A498; more than 100 µM in the test on HCT-15; > 100 µM (inactive) in the test on EKVX; > 100 µM (inactive) in the test with SF-539.
